Measurements: patent US20260274887A1, “SALT FORM AND POLYCRYSTALLINE FORM OF ALLOPREGNANOLONE DERIVATIVE, PREPARATION METHOD THEREFOR, AND USE THEREOF” (priority 2023, published 2026)
Like-named read-outs stand apart in the source and are kept apart here.

Assays:
[1] = Solubility of different salt forms in water (HPLC of supernatant); details: for Solubility at 25° C. / Solubility at 37° C.: purified water, 24 h; for solubility at 24 h: water, thermodynamic from solid
Procedure: The system was stirred in a water bath at 25° C. In addition, the same system was prepared by the same method and stirred at 37° C. After 24 h, the supernatant was taken for HPLC analysis.

[2] = Hygroscopic weight gain experiment (Chinese Pharmacopoeia 2020 hygroscopicity guideline); format: physicochemical; details: for Hygroscopic weight gain: 25° C.±1° C. and 80%±2% RH
Procedure: Table 1 below is the definition and range of hygroscopicity for a drug after equilibration at 25° C.±1° C. and 80%±2% RH in Guidelines for Hygroscopicity Trials for Pharmaceuticals (Chinese Pharmacopoeia, 2020 Edition, Volume IV, page 485).
The strong hygroscopicity of a drug will seriously affect the flowability of the drug and even affect the stability of the drug. Therefore, according to the present application, a hygroscopic weight gain experiment was conducted on different salt forms of compound 1 as per the method described in Guidelines for Hygroscopicity Trials for Pharmaceuticals (Chinese Pharmacopoeia, 2020 Edition, Volume IV).

[3] = Interconversion between crystalline forms (slurry of two forms, DSC); format: physicochemical; details: room temperature, 3 days
Procedure: Samples of two different crystalline forms were mixed and dissolved in a corresponding solvent of 5 mL, and the mixture was stirred at room temperature for 3 days and separated by centrifugation. The resulting solid was dried in vacuum at 40 ° C. The dried product was subjected to a DSC test to determine the composition of the crystalline form.

[4] = DVS profile (moisture sorption) of crystalline forms; format: physicochemical
[5] = Stability of crystalline form I and II (HPLC purity; XRPD and DSC crystalline form); format: physicochemical
[6] = as above; format: physicochemical; remark: listed apart in the source
Text: Samples were taken on day 0, day 10, and day 30 for XRPD and DSC detections to evaluate the physical stability and for HPLC purity detection to evaluate the chemical stability.

[7] = format: physicochemical
[8] = in the human body; cited from earlier work

Compound: Cc1ccc(S(=O)(=O)O)cc1.[2H]C(C)(C)C(N)C(=O)OC1CCC2(C)C(CCC3C2CCC2(C)C(C(C)=O)CCC32)C1 (stereo not drawn)
- Solubility at 25° C. [1]: 810 µg/mL
- Solubility at 37° C. [1]: 890 µg/mL
- Hygroscopic weight gain [2]: 0%

Compound: CC(=O)O [Acetate]
- Hygroscopic weight gain [2]: 0.4%

Compound: C1=Cc2cccc(OC[C@H]3CNCCO3)c2C1.O=S(=O)(O)c1ccccc1 [Benzenesulfonate]
- Hygroscopic weight gain [2]: 0.2%

Compound: [2H]C(C)(C)[C@H](N)C(=O)O[C@@H]1CC[C@@]2(C)[C@@H](CC[C@@H]3[C@@H]2CC[C@]2(C)[C@@H](C(C)=O)CC[C@@H]32)C1 [Compound 1, L-valine-3-d, (3α,5α)-3-hydroxy-pregnan-20-one-3-yl ester]
- solubility at 24 h ([1]; 25 °C): 10 µg/mL
- Solubility at 37° C. [1]: Not detected

Compound: Cl.[2H]C(C)(C)[C@H](N)C(=O)O[C@@H]1CC[C@@]2(C)[C@@H](CC[C@@H]3[C@@H]2CC[C@]2(C)[C@@H](C(C)=O)CC[C@@H]32)C1 [Crystalline form III]
- Final crystalline form ([3]; isopropyl acetate 5 ml): crystalline form I

Compound: Cl.[2H]C(C)(C)[C@H](N)C(=O)O[C@@H]1CC[C@@]2(C)[C@@H](CC[C@@H]3[C@@H]2CC[C@]2(C)[C@@H](C(C)=O)CC[C@@H]32)C1 [Crystalline form II]
- DVS weight gain ([4]; relative humidity 50%): about 4%
- Final crystalline form ([3]; isopropyl acetate 5 ml): crystalline form I
- Purity, High humidity (RH 92.5%) ([5]; day 5): 99.39%
- Purity, High temperature (60° C.) ([5]; day 5): 99.28%
- Purity, Illumination (4500 ± 500 Lux) ([5]; day 5): 99.57%
- Purity, Illumination (4500 ± 500 Lux) ([5]; day 10): 99.68%
- Purity, High humidity (RH 92.5%) ([5]; day 30): 99.37%
- Purity, High temperature (60° C.) ([5]; day 30): 97.03%
- Purity, High humidity (RH 92.5%) ([6]; day 0): 99.59%
- Purity, High temperature (60° C.) ([6]; day 0): 99.59%
- Purity, Illumination (4500 ± 500 Lux) ([6]; day 0): 99.59%
- Purity, High humidity (RH 92.5%) ([6]; day 10): 99.65%
- Purity, High temperature (60° C.) ([6]; day 10): 98.93%
- Purity, Illumination (4500 ± 500 Lux) ([6]; day 30): 99.20%

Compound: Cl.[2H]C(C)(C)[C@H](N)C(=O)O[C@@H]1CC[C@@]2(C)[C@@H](CC[C@@H]3[C@@H]2CC[C@]2(C)[C@@H](C(C)=O)CC[C@@H]32)C1 [Crystalline form IV]
- Final crystalline form ([3]; n-heptane 5 ml): crystalline form IIL

Compound: Cl.[2H]C(C)(C)[C@H](N)C(=O)O[C@@H]1CC[C@@]2(C)[C@@H](CC[C@@H]3[C@@H]2CC[C@]2(C)[C@@H](C(C)=O)CC[C@@H]32)C1 [Crystalline form I]
- DVS weight gain ([4]; relative humidity 90%): 1.2%
- Hygroscopicity (summary statement) ([2]; summary of the polymorph comparison): non-hygroscopic
- Purity, High humidity (RH 92.5%) ([5]; day 5): 99.72%
- Purity, High temperature (60° C.) ([5]; day 5): 99.78%
- Purity, Illumination (4500 ± 500 Lux) ([5]; day 5): 99.78%
- Purity, Illumination (4500 ± 500 Lux) ([5]; day 10): 99.82%
- Purity, High humidity (RH 92.5%) ([5]; day 30): 99.78%
- Purity, High temperature (60° C.) ([5]; day 30): 99.64%
- Purity, High humidity (RH 92.5%) ([6]; day 0): 99.77%
- Purity, High temperature (60° C.) ([6]; day 0): 99.77%
- Purity, Illumination (4500 ± 500 Lux) ([6]; day 0): 99.77%
- Purity, High humidity (RH 92.5%) ([6]; day 10): 99.82%
- Purity, High temperature (60° C.) ([6]; day 10): 99.77%
- Purity, Illumination (4500 ± 500 Lux) ([6]; day 30): 99.65%

Compound: Cl.[2H]C(C)(C)[C@H](N)C(=O)O[C@@H]1CC[C@@]2(C)[C@@H](CC[C@@H]3[C@@H]2CC[C@]2(C)[C@@H](C(C)=O)CC[C@@H]32)C1 [Hydrochloride]
- solubility at 24 h ([1]; 25 °C): 22700 µg/mL
- solubility at 24 h ([1]; 37 °C): 46400 µg/mL
- HPLC purity, High humidity/RH 92.5% ([7]; day 0): 100%
- HPLC purity, High temperature/60° C. ([7]; day 0): 100%
- HPLC purity, Illumination/4500 ± 500 Lux ([7]; day 0): 100%
- HPLC purity, High humidity/RH 92.5% ([7]; day 7): 99.89%
- HPLC purity, High temperature/60° C. ([7]; day 7): 99.89%
- HPLC purity, Illumination/4500 ± 500 Lux ([7]; day 7): 99.89%
- HPLC purity, High humidity/RH 92.5% ([7]; day 14): 99.89%
- HPLC purity, High temperature/60° C. ([7]; day 14): 99.88%
- HPLC purity, Illumination/4500 ± 500 Lux ([7]; day 14): 99.89%
- Hygroscopic weight gain [2]: 0.2%

Compound: O=C(O)CC(O)C(=O)O.[2H]C(C)(C)C(N)C(=O)OC1CCC2(C)C(CCC3C2CCC2(C)C(C(C)=O)CCC32)C1.[2H]C(C)(C)C(N)C(=O)OC1CCC2(C)C(CCC3C2CCC2(C)C(C(C)=O)CCC32)C1 [L-Malate]
- Solubility at 25° C. [1]: 1400 µg/mL
- Solubility at 37° C. [1]: 2110 µg/mL
- Hygroscopic weight gain [2]: 4.0%

Compound: O=P(O)(O)O.[2H]C(C)(C)C(N)C(=O)OC1CCC2(C)C(CCC3C2CCC2(C)C(C(C)=O)CCC32)C1.[2H]C(C)(C)C(N)C(=O)OC1CCC2(C)C(CCC3C2CCC2(C)C(C(C)=O)CCC32)C1 (stereo not drawn) [Phosphate]
- Hygroscopic weight gain [2]: 4.9%

Compound: CC(=O)[C@H]1CC[C@H]2[C@@H]3CC[C@H]4C[C@H](O)CC[C@]4(C)[C@H]3CC[C@]12C [allopregnanolone, 3α-OH-5α-pregnan-20-one]
- plasma half-life [8]: about 45 minutes

Compound: Maleate
- Solubility at 25° C. [1]: 730 µg/mL
- Solubility at 37° C. [1]: 1120 µg/mL
- Hygroscopic weight gain [2]: 0%
